From US12122761B2, “2-azaspiro[3.4]octane derivatives as M4 agonists” (NOVARTIS AG, priority 2019, dated 2024)

Columns and labels:
[1] = target: T1, human cloned CHRM2 receptor (M2_CHO cells) (Homo sapiens, UniProt P08172); experiment: CHRM2 Ca++ Flux Assay (agonist mode, FDSS 7000EX); assay type: cell-based; details: for Emax: Percent Activity measured to EC100 of Carbachol, read-out: M2 FDSS PA; for EC50: agonist mode, geometric mean if tested more than once, read-out: M2 FDSS EC50
T1 construct: expressed in transfected cells; host or cells: CHO-K1
T1 sequence (P08172 1-466): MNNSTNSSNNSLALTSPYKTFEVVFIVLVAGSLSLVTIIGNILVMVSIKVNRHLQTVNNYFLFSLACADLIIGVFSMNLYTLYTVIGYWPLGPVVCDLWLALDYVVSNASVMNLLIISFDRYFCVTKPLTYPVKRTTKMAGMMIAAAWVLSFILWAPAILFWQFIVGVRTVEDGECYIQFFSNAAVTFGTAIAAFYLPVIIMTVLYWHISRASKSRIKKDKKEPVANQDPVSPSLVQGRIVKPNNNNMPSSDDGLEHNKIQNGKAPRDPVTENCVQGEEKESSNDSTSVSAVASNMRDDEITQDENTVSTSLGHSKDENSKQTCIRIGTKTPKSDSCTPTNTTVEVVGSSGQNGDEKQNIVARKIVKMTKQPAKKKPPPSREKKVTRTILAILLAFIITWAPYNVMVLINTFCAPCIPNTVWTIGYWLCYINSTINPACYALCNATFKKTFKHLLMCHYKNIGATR
Procedure, shortened: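 Response expressed as percent activity versus the Carbachol EC100, with curves fitted by four-parameter non-linear regression of triplicates. Stable M2_CHO cells were Ca++ dye-loaded and preincubated 60 min at room temperature in assay buffer containing 20 μM ATP; signal imaged for 3 minutes after compound.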

[2] = target: T2, human cloned CHRM3 receptor (M3_CHO cells) (Homo sapiens, UniProt P20309); experiment: CHRM3 Ca++ Flux Assay (agonist mode, FDSS 7000EX); assay type: cell-based; details: for Emax: Percent Activity measured to EC100 of Carbachol, read-out: M3 FDSS PA; for EC50: agonist mode, geometric mean if tested more than once, read-out: M3 FDSS EC50
T2 construct: expressed in transfected cells; host or cells: CHO-K1
T2 sequence (P20309 whole entry): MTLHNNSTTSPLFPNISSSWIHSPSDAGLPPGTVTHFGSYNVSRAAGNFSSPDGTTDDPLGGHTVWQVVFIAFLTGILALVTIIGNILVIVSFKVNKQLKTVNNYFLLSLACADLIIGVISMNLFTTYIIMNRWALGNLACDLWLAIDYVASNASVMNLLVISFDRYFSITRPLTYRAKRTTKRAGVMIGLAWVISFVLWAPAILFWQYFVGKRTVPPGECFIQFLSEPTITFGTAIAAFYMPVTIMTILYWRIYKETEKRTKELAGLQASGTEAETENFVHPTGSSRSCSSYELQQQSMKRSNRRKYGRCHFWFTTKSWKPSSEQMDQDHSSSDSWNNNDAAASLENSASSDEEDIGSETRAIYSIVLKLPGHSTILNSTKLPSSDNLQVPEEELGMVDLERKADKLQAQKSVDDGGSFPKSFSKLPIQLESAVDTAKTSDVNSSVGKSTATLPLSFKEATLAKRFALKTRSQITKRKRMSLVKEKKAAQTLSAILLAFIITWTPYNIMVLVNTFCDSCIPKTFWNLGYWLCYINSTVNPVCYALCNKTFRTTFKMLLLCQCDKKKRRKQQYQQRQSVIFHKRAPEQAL
Procedure, shortened: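 Agonist responses are measured as calcium mobilization in CHO-K1 cells expressing human M3 or M5, tested over an 11-point dose range in triplicate. Percent activity is normalised to carbachol at EC100.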

| SMILES | Emax [1] | Emax [2] | EC50 [2] | EC50 [1] |
| --- | --- | --- | --- | --- |
| CC(C)(O)CCOc1ccccc1C1CCN([C@@H]2CCC3(C2)CN(c2ncns2)C3)CC1 [Example 3L, (R)-4-(2-(1-(2-(1,2,4-thiadiazol-5-yl)-2-azaspiro[3.4]octan-6-yl)piperidin-4-yl)phenoxy)-2-methylbutan-2-ol] | 0% | 0% | > 25 µM | – |
| O=C(C1COC1)N1CC2(CC[C@@H](N3CCC(c4ccccc4OC4CC4)CC3)C2)C1 [Example 7A, (R)-(6-(4-(2-cyclopropoxyphenyl)piperidin-1-yl)-2-azaspiro[3.4]octan-2-yl)(oxetan-3-yl)methanone] | 55% | 9% | 9.78 µM | 0.142 µM |
| c1ccc(C2CCN([C@@H]3CCC4(C3)CN(c3cncnc3)C4)CC2)c(OC2CC3(COC3)C2)c1 [Example 1O, (R)-6-(4-(2-((2-oxaspiro[3.3]heptan-6-yl)oxy)phenyl)piperidin-1-yl)-2-(pyrimidin-5-yl)-2-azaspiro[3.4]octane] | 0% | 0% | > 25 µM | – |
| O=C(C1COC1)N1CC2(CC[C@@H](N3CCC(c4ccc(F)cc4OC(F)F)CC3)C2)C1 [Example 6B, (R)-(6-(4-(2-(difluoromethoxy)-4-fluorophenyl)piperidin-1-yl)-2-azaspiro[3.4]octan-2-yl)(oxetan-3-yl)methanone] | 0% | 0% | > 25 µM | – |
| COc1ccccc1C1CCN([C@@H]2CCC3(C2)CN(c2nc(C)ns2)C3)CC1 [Example 3M, (R)-5-(6-(4-(2-methoxyphenyl)piperidin-1-yl)-2-azaspiro[3.4]octan-2-yl)-3-methyl-1,2,4-thiadiazole] | 0% | 0% | > 25 µM | – |
| c1ccc(C2CCN([C@@H]3CCC4(C3)CN(c3nnco3)C4)CC2)c(-c2ncco2)c1 [Example 2M, (R)-2-(6-(4-(2-(oxazol-2-yl)phenyl)piperidin-1-yl)-2-azaspiro[3.4]octan-2-yl)-1,3,4-oxadiazole] | 18% | 0% | > 25 µM | 0.343 µM |
| c1ccc(C2CCN([C@@H]3CCC4(C3)CN(c3cncnc3)C4)CC2)c(OC2COC2)c1 [Example 1K, (R)-6-(4-(2-(oxetan-3-yloxy)phenyl)piperidin-1-yl)-2-(pyrimidin-5-yl)-2-azaspiro[3.4]octane] | 19% | 0% | > 25 µM | 0.029 µM |

Other lines, results leading:

| Emax [1] | Emax [2] | EC50 [2] | EC50 [1] | SMILES |
| --- | --- | --- | --- | --- |
| 0% | 0% | > 25 µM | – | O=C(C1COC1)N1CC2(CC[C@@H](N3CCC(c4ccccc4Oc4nccs4)CC3)C2)C1 [Example 7C, (R)-oxetan-3-yl(6-(4-(2-(thiazol-2-yloxy)phenyl)piperidin-1-yl)-2-azaspiro[3.4]octan-2-yl)methanone] |
| 0% | 0% | > 25 µM | – | O=C(N1CC2(CC[C@H](N3CCC(c4ccccc4C4CCOCC4)CC3)C2)C1)C1(F)CC1 (single isomer, unassigned) [Example 9M] |
| 12% | 0% | > 25 µM | 6.88 µM | O=C(C1COC1)N1CC2(CC[C@@H](N3CCC(c4ccccc4OCC4(C(F)(F)F)CC4)CC3)C2)C1 [Example 7II, (R)-oxetan-3-yl(6-(4-(2-((1-(trifluoromethyl)cyclopropyl)methoxy)phenyl)piperidin-1-yl)-2-azaspiro[3.4]octan-2-yl)methanone] |
| 18% | 0% | > 25 µM | 110 µM | O=C(C1COC1)N1CC2(CC[C@@H](N3CCC(c4ccccc4OC(F)(F)F)CC3)C2)C1 [Example 12A, (R)-oxetan-3-yl(6-(4-(2-(trifluoromethoxy)phenyl)piperidin-1-yl)-2-azaspiro[3.4]octan-2-yl)methanone] |
| 23% | 0% | > 25 µM | 0.59 µM | CC(C)Oc1ccccc1C1CCN([C@@H]2CCC3(C2)CN(C(=O)C2COC2)C3)CC1 [Example 7K, (R)-(6-(4-(2-isopropoxyphenyl)piperidin-1-yl)-2-azaspiro[3.4]octan-2-yl)(oxetan-3-yl)methanone] |
